Each structure is given as a SMILES string.

The test system of data set [1] is HeLa cells. Kind of data set: Immunofluorescence assay, mitotic phase distribution. The class given is cell-based, human. Conditions: 10 hrs; for percentage of prometaphase cells: synchronized HeLa, control 23.3%. As for the experimental part:
To determine mitotic phase distribution, about 50 mitotic cells were analyzed. Cells were classified according to the structure and alignment of the chromosomes as well as the number and location of the centrosomes. All experiments were performed in triplicate. For confocal microscopy, HeLa cells grown on coverslips were fixed and permeabilized in methanol for 15 min at −20°C and then incubated with blocking buffer (PBS with 0.1% Triton X-100 and 5% BSA) for 2 hrs at RT. And then the coverslips were followed by washing and incubation with primary antibodies and fluorophore-conjugated secondary antibodies for 1 hr at RT, respectively. All antibodies were diluted in blocking buffer and the coverslips were washed three times with PBST, and then all coverslips were treated with 4',6-diamidino-2-phenylindole (DAPI) (Sigma; 2 μg/mL) for 2 min at RT, washed again and mounted onto slides using ProLong Diamond Antifade Mountant (Cat# 36961; Molecular Probes). Immunofluorescence images were taken with Olympus FV1000 Confocal Laser Microscope (Olympus, Japan) at 600×magnification. All images were processed using FV10-ASW 3.0 Viewer Software System (Olympus, Japan). The following antibodies were used: anti-α-Tubulin mouse monoclonal antibody (Cat# T9026; Sigma; 1:800), anti-γ-Tubulin rabbit polyclonal antibody (Cat# T3559; Sigma; 1:1500), Alex Fluor 488-conjugated goat anti-mouse IgG (Cat# A-11011; Molecular Probes; 1:1000) and Alex Fluor 594-conjugated donkey anti-rabbit IgG (Cat# A-21207; Molecular Probes; 1:1000).

Data set [2] has as its target T1, Plk1 PBD (Homo sapiens, UniProt P53350).
T1 construct: (326-603 aa), Plk2 (355-685 aa), and Plk3 (335-646 aa); 6xHis (N); 6xHis (C); made in house; host or cells: E. coli Rosetta BL21(DE3)
The experiment in a line: Circular dichroism spectroscopy. The note with it: complex with T521. As for the experimental part: PAGE, and then the stained band was excised from The raw data was processed using Proteome the polyacrylamide gel, washed twice with water, and Discoverer software (Thermo Fischer). MS2 spectra destained with 40% ACN/50 mM NH4HCO3. The gel were searched with SEQUEST engine against target Plk1 pieces were dehydrated with 100% ACN and dried for protein and common pollution proteins database (246 5 min using a speedvac. Disulfide bonds were reduced Protein Sequences). Database searches were performed by treatment with DTT (10 mM, 56°C, 45 min), and the with the following parameters: precursor mass tolerance free sulfhydryl groups were alkylated with iodoacetamide 20 ppm; MS/MS mass tolerance 0.6 Da; two missed (55 mM, 25°C, 60 min in the dark). After drying with cleavage for tryptic peptides; variable modifications a speedvac, the gel was rehydrated using 100 ng/μL oxidation (M), T521 fragment modification (+301.02) trypsin (50 mM NH4HCO3, pH8.3) on ice for 30 min, (K, R), fixed modification Carbamidomethyl (C), the and the digestion was carried out at 37°C for 60 min and results were filtered for a 1% false discovery rate (FDR) then quenched with 1.0% FA. The tryptic peptides were at the PSM level utilizing the percolator-based algorithm. extracted twice with 60% ACN containing 0.1% FA, and Peptide identifications were grouped into proteins then the combined digest solution was concentrated to 25 according to the law of parsimony. […]
B; 90–91 min, 80%–4% B; 91–100 min, 4% B. Eluting the calculation of mean residue ellipticity. […] Three MS spectra were acquired from m/z 300 to m/z 1,800, and independent experiments were performed for each sample. the 10 most intense ions with charges more than 2 and Spectral deconvolution of CD data was performed using above an intensity threshold 500 were fragmented in the CDNN to determine relative quantities of α-helix, linear ion trap using normalized collision energy of 35%. β-sheet, β-turn and random coil. […]

Data set [3] in a line: Body weight of xenografted nude mice (tolerability). The data set is classed as in vivo. Conditions: intratumoral injection 50 and 100 mg/kg, 5 weeks, vs control. As for the experimental part: Female athymic nude mice were injected with 2.0 × 10^7 A549 lung-carcinoma cells subcutaneously. After 14~20 days, when the tumor volumes reached 100~150 mm^3, animals were divided into treatment (T521; 50, 100 mg/kg) and control (DMSO) groups with ten mice in each group. T521 (0.2 g/mL) dissolved in DMSO was administered alone and mice were treated with T521 by intratumoral injection at the different injection points according to indicated dose on Wednesdays and Fridays for 5 weeks. Tumor volumes were determined with a caliper on Monday and Thursday during drug administration cycle. Tumor volume (mm^3) was calculated using the following equation: V=L×S^2×π/6, where L is the length and S is width of the tumor. The body weight of these mice was determined as an indicator of tolerability on the same days. Student's t-tests were performed for statistical evaluation among treatment and control groups. All mice were properly treated in accordance with the guidelines of the local animal committee.

T1 sequence (P53350 326-603): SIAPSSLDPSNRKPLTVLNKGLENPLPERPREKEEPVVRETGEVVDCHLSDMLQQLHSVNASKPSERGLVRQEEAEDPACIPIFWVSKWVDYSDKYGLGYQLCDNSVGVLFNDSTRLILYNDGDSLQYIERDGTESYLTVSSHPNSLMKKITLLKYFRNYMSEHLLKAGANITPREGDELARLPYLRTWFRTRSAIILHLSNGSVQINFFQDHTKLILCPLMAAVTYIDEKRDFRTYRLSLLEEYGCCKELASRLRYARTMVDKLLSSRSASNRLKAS

Consider `CCS(=O)(=O)c1oc(-c2ccc(F)cc2)nc1S(=O)(=O)c1ccccc1` [T521, 5-(ethylsulfonyl)-2-(4-fluorophenyl)-4-(phenylsulfonyl) oxazole], for which the “percentage of prometaphase cells” value worked out at 32.7% in data set [1] (5 μM), 56.0% in data set [1] (10 μM) and 76.2% in data set [1] (15 μM). In addition, the “metaphase cells with chromosome alignment defects” value in data set [1] (synchronized HeLa, 5, 10, 15 μM) is “remarkable increase”. For the same molecule, in data set [2] (native Plk1 PBD 21.08%), the “β-turn composition of Plk1 PBD complex” value came out at 29.59%. In addition, the “α-helix composition of Plk1 PBD complex” value in data set [2] (native Plk1 PBD 26.18%) turned out to be 11.63%. Besides, the “random coil composition of Plk1 PBD complex” value in data set [2] (native Plk1 PBD 34.80%) is listed as 41.46%. Besides, the “tolerability by body weight” value in data set [3] is recorded as “well tolerated”.

These data come from PMC5352051, “Identification of a novel Polo-like kinase 1 inhibitor that specifically blocks the functions of Polo-Box domain” (Oncotarget, 2016).
